Broadly, the AC50 is the concentration giving half of the maximal activity seen.

This test addresses T1, human PAH with the R408W mutation (Homo sapiens, UniProt P00439, R408W).
T1 construct: expressed in transfected cells
T1 sequence (P00439 1-452 R408W): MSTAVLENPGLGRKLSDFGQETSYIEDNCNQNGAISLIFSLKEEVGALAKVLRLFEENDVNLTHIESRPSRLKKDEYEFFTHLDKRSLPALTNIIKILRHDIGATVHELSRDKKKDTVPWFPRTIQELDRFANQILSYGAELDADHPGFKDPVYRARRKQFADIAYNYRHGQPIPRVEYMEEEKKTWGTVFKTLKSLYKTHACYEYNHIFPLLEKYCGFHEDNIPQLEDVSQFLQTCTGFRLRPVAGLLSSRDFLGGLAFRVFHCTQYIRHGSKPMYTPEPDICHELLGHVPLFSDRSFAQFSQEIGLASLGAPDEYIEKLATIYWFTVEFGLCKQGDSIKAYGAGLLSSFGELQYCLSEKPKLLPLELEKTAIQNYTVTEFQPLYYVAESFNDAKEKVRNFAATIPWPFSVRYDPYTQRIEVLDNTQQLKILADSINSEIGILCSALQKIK
The test can be described thus: Cell Based Phenylalanine Flux Assay.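 Further: after compound treatment, cells received sepiapterin plus isotope-labelled Phenylalanine for 4 hours, then labelled Tyrosine in the medium was quantified, 10-point 2-fold dilution series run in duplicate.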 The conditions noted are these: A375 cells expressing human R408W PAH; 24 hrs compound incubation; 13C-Tyrosine by LC-MS; average where tested multiple times; read-out: AC50.
In the case of `Cc1cccn2nc([C@@H]3c4nc[nH]c4CCN3C(=O)c3ccnn3C3CC3)cc12` [Example 860, (S)-(1-cyclopropyl-1H-pyrazol-5-yl)(4-(4-methylpyrazolo[1,5-a]pyridin-2-yl)-6,7-dihydro-1H-imidazo[4,5-c]pyridin-5(4H)-yl)methanone], the AC50 was < 500 nM. `Cc1cccn2nc([C@@H]3c4nc[nH]c4CCN3C(=O)c3ccnn3-c3ccccn3)cc12` [Example 862, (S)-(4-(4-methylpyrazolo[1,5-a]pyridin-2-yl)-6,7-dihydro-1H-imidazo[4,5-c]pyridin-5(4H)-yl)(1-(pyridin-2-yl)-1H-pyrazol-5-yl)methanone]: the AC50 is < 500 nM. On to `Cn1nc(C(F)F)cc1C(=O)N1CCc2[nH]cnc2[C@H]1c1cc2c(F)cccn2n1` [Example 864, (S)-(3-(difluoromethyl)-1-methyl-1H-pyrazol-5-yl)(4-(4-fluoropyrazolo[1,5-a]pyridin-2-yl)-6,7-dihydro-1H-imidazo[4,5-c]pyridin-5(4H)-yl)methanone], for which the AC50 was < 500 nM. Take `Cn1cncc1-c1nc(C(F)F)c(C(=O)N2CCc3[nH]cnc3[C@@H]2c2cc3ccccn3n2)o1` [Example 868, (R)-(4-(difluoromethyl)-2-(1-methyl-1H-imidazol-5-yl)oxazol-5-yl)(4-(pyrazolo[1,5-a]pyridin-2-yl)-6,7-dihydro-1H-imidazo[4,5-c]pyridin-5(4H)-yl)methanone]: the AC50 was > 5000 nM. `Cn1cncc1-c1nc(C(F)F)c(C(=O)N2CCc3[nH]cnc3[C@H]2c2cc3ccccn3n2)o1` [Example 869, (S)-(4-(difluoromethyl)-2-(1-methyl-1H-imidazol-5-yl)oxazol-5-yl)(4-(pyrazolo[1,5-a]pyridin-2-yl)-6,7-dihydro-1H-imidazo[4,5-c]pyridin-5(4H)-yl)methanone]: the AC50 fell in the range of 500 to 1000 nM.

`Cc1ccc(-c2nnc(C(=O)N3CCc4[nH]cnc4[C@@H]3c3cc4c(C)cccn4n3)o2)nc1` [Example 870, (R)-(4-(4-methylpyrazolo[1,5-a]pyridin-2-yl)-6,7-dihydro-1H-imidazo[4,5-c]pyridin-5(4H)-yl)(5-(5-methylpyridin-2-yl)-1,3,4-oxadiazol-2-yl)methanone]: the AC50 is > 5000 nM. For `Cc1ccc(-c2nnc(C(=O)N3CCc4[nH]cnc4[C@H]3c3cc4c(C)cccn4n3)o2)nc1` [Example 871, (S)-(4-(4-methylpyrazolo[1,5-a]pyridin-2-yl)-6,7-dihydro-1H-imidazo[4,5-c]pyridin-5(4H)-yl)(5-(5-methylpyridin-2-yl)-1,3,4-oxadiazol-2-yl)methanone], the AC50 is < 500 nM. The value for `Cc1cccn2nc([C@H]3c4nc[nH]c4CCN3C(=O)c3nnc(-c4ccc(C(F)(F)F)cn4)o3)cc12` [Example 872, (R)-(4-(4-methylpyrazolo[1,5-a]pyridin-2-yl)-6,7-dihydro-1H-imidazo[4,5-c]pyridin-5(4H)-yl)(5-(5-(trifluoromethyl)pyridin-2-yl)-1,3,4-oxadiazol-2-yl)methanone] was > 5000 nM; that for `Cc1cccn2nc([C@@H]3c4nc[nH]c4CCN3C(=O)c3nnc(-c4ccc(C(F)(F)F)cn4)o3)cc12` [Example 873, (S)-(4-(4-methylpyrazolo[1,5-a]pyridin-2-yl)-6,7-dihydro-1H-imidazo[4,5-c]pyridin-5(4H)-yl)(5-(5-(trifluoromethyl)pyridin-2-yl)-1,3,4-oxadiazol-2-yl)methanone] was 500 to 1000 nM. The value for `Cc1cccn2nc([C@@H]3c4nc[nH]c4CCN3C(=O)c3nnc(-c4ccc(F)cn4)o3)cc12` [Example 875, (S)-(5-(5-fluoropyridin-2-yl)-1,3,4-oxadiazol-2-yl)(4-(4-methylpyrazolo[1,5-a]pyridin-2-yl)-6,7-dihydro-1H-imidazo[4,5-c]pyridin-5(4H)-yl)methanone] was < 500 nM.
